How the values were obtained:
MT4 = assay: Compound was tested in vitro for inhibition of spread of viral infection in MT-4 human T-lymphoid cells infected with the IIIb isolate; format: functional; conditions: read-out: CIC95
[1] = molecular target: Human immunodeficiency virus type 1 protease (Human immunodeficiency virus 1, UniProt Q72874); assay: In vitro inhibitory concentration to prevent cleavage of a substrate by the protease enzyme

SMILES | IC95 (MT4) [nM] | IC50 [1] [nM]
CC(C)(C)NC(=O)[C@@H]1CN(S(C)(=O)=O)CCN1C[C@@H](O)C[C@@H](Cc1ccccc1)C(=O)N[C@H]1c2ccccc2C[C@H]1O | 400 | 1.6
CC(C)(C)NC(=O)[C@@H]1CN(Cc2cccnc2)CCN1C[C@@H](O)C[C@@H](Cc1ccccc1)C(=O)N[C@H]1c2ccccc2C[C@H]1O [INDINAVIR] | 50.5 | –
CC(C)(C)NC(=O)[C@@H]1CN(Cc2ccc(Cl)c(Cl)c2)CCN1C[C@@H](O)C[C@@H](Cc1ccccc1)C(=O)N[C@H]1c2ccccc2C[C@H]1O | 200 | 1.1

Source: ChEMBL document CHEMBL1133226, “Combinatorial diversification of indinavir: in vivo mixture dosing of an HIV protease inhibitor library” (Bioorg Med Chem Lett, 2000)
